According to the CheMixHub ionic liquid set:
± gives the uncertainty stated by the source.

Assay: xn = mol fraction of the nth substance listed

CC(=O)[O-].CCCC[N+](CCCC)(CCCC)CCCC + CCCCCCCCCCCCOS(=O)(=O)[O-].[Na+] + O
viscosity [mPa·s], 100 kPa
Conditions	x2 = 1.81e-06, x1 = 0.0001802	x2 = 3.61e-06, x1 = 0.0001802	x2 = 5.42e-06, x1 = 0.0001802	x2 = 7.23e-06, x1 = 0.0001802	x2 = 9.04e-06, x1 = 0.0001802	x2 = 1.084e-05, x1 = 0.0001802	x2 = 1.265e-05, x1 = 0.0001802	x2 = 1.446e-05, x1 = 0.0001802	x2 = 1.626e-05, x1 = 0.0001802	x2 = 1.807e-05, x1 = 0.0001802
293.15 K	0.997 ± 0.029	1 ± 0.029	1.004 ± 0.029	1.004 ± 0.029	1.006 ± 0.029	1.007 ± 0.029	1.007 ± 0.029	1.008 ± 0.029	1.008 ± 0.029	1.008 ± 0.029
298.15 K	0.89 ± 0.028	0.893 ± 0.028	0.894 ± 0.028	0.894 ± 0.028	0.898 ± 0.028	0.901 ± 0.028	0.902 ± 0.028	0.903 ± 0.028	0.904 ± 0.028	0.904 ± 0.028
303.15 K	0.756 ± 0.028	0.758 ± 0.028	0.76 ± 0.028	0.763 ± 0.028	0.764 ± 0.028	0.765 ± 0.028	0.766 ± 0.028	0.768 ± 0.028	0.768 ± 0.028	0.769 ± 0.028
308.15 K	0.679 ± 0.027	0.68 ± 0.027	0.681 ± 0.027	0.683 ± 0.027	0.684 ± 0.027	0.684 ± 0.027	0.686 ± 0.027	0.687 ± 0.027	0.688 ± 0.027	0.688 ± 0.027
313.15 K	0.605 ± 0.027	0.606 ± 0.027	0.606 ± 0.027	0.608 ± 0.027	0.609 ± 0.027	0.609 ± 0.027	0.611 ± 0.027	0.612 ± 0.027	0.612 ± 0.027	0.613 ± 0.027
318.15 K	0.569 ± 0.027	0.572 ± 0.027	0.572 ± 0.027	0.574 ± 0.027	0.575 ± 0.027	0.575 ± 0.027	0.577 ± 0.027	0.578 ± 0.027	0.578 ± 0.027	0.579 ± 0.027

CC(=O)[O-].CCCC[N+](CCCC)(CCCC)CCCC + CCCCCCCCCCCC[N+](C)(C)C.[Br-] + O
viscosity [mPa·s], 100 kPa
Conditions	x2 = 5.421e-05, x1 = 0.0001802	x2 = 0.0001084, x1 = 0.0001801	x2 = 0.0001626, x1 = 0.0001801	x2 = 0.0002168, x1 = 0.0001801	x2 = 0.000271, x1 = 0.0001801	x2 = 0.0003252, x1 = 0.0001801	x2 = 0.0003793, x1 = 0.0001801	x2 = 0.0004335, x1 = 0.0001801	x2 = 0.0004877, x1 = 0.0001801	x2 = 0.0005418, x1 = 0.0001801
293.15 K	1.029 ± 0.029	1.031 ± 0.029	1.032 ± 0.029	1.033 ± 0.029	1.034 ± 0.029	1.034 ± 0.029	1.035 ± 0.029	1.035 ± 0.029	1.035 ± 0.029	1.035 ± 0.029
298.15 K	0.916 ± 0.029	0.919 ± 0.029	0.92 ± 0.029	0.922 ± 0.029	0.924 ± 0.029	0.926 ± 0.029	0.928 ± 0.029	0.929 ± 0.029	0.93 ± 0.029	0.931 ± 0.029
303.15 K	0.808 ± 0.028	0.81 ± 0.028	0.813 ± 0.028	0.816 ± 0.028	0.817 ± 0.028	0.82 ± 0.028	0.82 ± 0.028	0.82 ± 0.028	0.822 ± 0.028	0.821 ± 0.028
308.15 K	0.724 ± 0.028	0.726 ± 0.028	0.727 ± 0.028	0.729 ± 0.028	0.729 ± 0.028	0.73 ± 0.028	0.731 ± 0.028	0.731 ± 0.028	0.732 ± 0.028	0.732 ± 0.028
313.15 K	0.657 ± 0.027	0.659 ± 0.027	0.662 ± 0.027	0.664 ± 0.027	0.665 ± 0.027	0.667 ± 0.028	0.667 ± 0.028	0.668 ± 0.028	0.669 ± 0.028	0.669 ± 0.028
318.15 K	0.607 ± 0.027	0.607 ± 0.027	0.609 ± 0.027	0.61 ± 0.027	0.611 ± 0.027	0.613 ± 0.027	0.613 ± 0.027	0.617 ± 0.027	0.618 ± 0.027	0.619 ± 0.027

O=S(=O)([O-])[O-].[Na+].[Na+] + CCCCCCCCCCCC[N+](C)(C)C.[Br-] + O
298.15 K, 101 kPa
Conditions	electrical conductivity [S/m]
x2 = 0, x1 = 0.0001802	0.219 ± 0.0004
x2 = 0, x1 = 0.001799	1.527 ± 0.0031
x2 = 1.98e-06, x1 = 0.0001802	0.2192 ± 0.0004
x2 = 4.2e-06, x1 = 0.001799	1.523 ± 0.003
x2 = 6.31e-06, x1 = 0.0001802	0.2208 ± 0.0004
x2 = 1.064e-05, x1 = 0.0001802	0.2225 ± 0.0004
x2 = 1.241e-05, x1 = 0.001799	1.523 ± 0.003
x2 = 1.516e-05, x1 = 0.0001802	0.2243 ± 0.0005
x2 = 2.061e-05, x1 = 0.001799	1.525 ± 0.0031
x2 = 2.201e-05, x1 = 0.0001802	0.2272 ± 0.0005
x2 = 2.882e-05, x1 = 0.001799	1.526 ± 0.0031
x2 = 3.067e-05, x1 = 0.0001802	0.231 ± 0.0005
x2 = 3.667e-05, x1 = 0.001799	1.528 ± 0.0031
x2 = 3.951e-05, x1 = 0.0001802	0.2348 ± 0.0005
x2 = 4.451e-05, x1 = 0.001799	1.531 ± 0.0031
x2 = 5.088e-05, x1 = 0.0001802	0.2397 ± 0.0005
x2 = 5.235e-05, x1 = 0.001799	1.533 ± 0.0031
x2 = 6.188e-05, x1 = 0.0001802	0.2448 ± 0.0005
x2 = 6.221e-05, x1 = 0.001799	1.536 ± 0.0031
x2 = 6.932e-05, x1 = 0.001799	1.538 ± 0.0031
x2 = 7.271e-05, x1 = 0.0001801	0.2498 ± 0.0005
x2 = 7.662e-05, x1 = 0.001799	1.54 ± 0.0031
x2 = 8.353e-05, x1 = 0.0001801	0.2543 ± 0.0005
x2 = 8.391e-05, x1 = 0.001799	1.542 ± 0.0031
x2 = 9.048e-05, x1 = 0.001799	1.544 ± 0.0031
x2 = 9.435e-05, x1 = 0.0001801	0.2592 ± 0.0005
x2 = 9.741e-05, x1 = 0.001799	1.546 ± 0.0031
x2 = 0.0001038, x1 = 0.001799	1.548 ± 0.0031
x2 = 0.0001048, x1 = 0.0001801	0.2637 ± 0.0005
x2 = 0.0001104, x1 = 0.001799	1.55 ± 0.0031
x2 = 0.0001153, x1 = 0.0001801	0.2682 ± 0.0005
x2 = 0.0001173, x1 = 0.001799	1.553 ± 0.0031
x2 = 0.0001239, x1 = 0.001799	1.556 ± 0.0031
x2 = 0.0001257, x1 = 0.0001801	0.2729 ± 0.0005
x2 = 0.0001315, x1 = 0.001799	1.56 ± 0.0031
x2 = 0.0001364, x1 = 0.0001801	0.2774 ± 0.0006
x2 = 0.0001404, x1 = 0.001799	1.563 ± 0.0031
x2 = 0.0001467, x1 = 0.0001801	0.2821 ± 0.0006
x2 = 0.0001478, x1 = 0.001798	1.565 ± 0.0031
x2 = 0.0001549, x1 = 0.001798	1.567 ± 0.0031
x2 = 0.0001569, x1 = 0.0001801	0.2866 ± 0.0006
x2 = 0.0001623, x1 = 0.001798	1.569 ± 0.0031
x2 = 0.0001672, x1 = 0.0001801	0.2912 ± 0.0006
x2 = 0.0001702, x1 = 0.001798	1.571 ± 0.0031
x2 = 0.0001775, x1 = 0.0001801	0.2956 ± 0.0006
x2 = 0.0001777, x1 = 0.001798	1.573 ± 0.0031
x2 = 0.0001851, x1 = 0.001798	1.575 ± 0.0032
x2 = 0.0001876, x1 = 0.0001801	0.3 ± 0.0006
x2 = 0.000193, x1 = 0.001798	1.577 ± 0.0032
x2 = 0.0001975, x1 = 0.0001801	0.3042 ± 0.0006
x2 = 0.0001997, x1 = 0.001798	1.579 ± 0.0032
x2 = 0.0002074, x1 = 0.001798	1.58 ± 0.0032
x2 = 0.0002076, x1 = 0.0001801	0.308 ± 0.0006
x2 = 0.000215, x1 = 0.001798	1.582 ± 0.0032
x2 = 0.0002175, x1 = 0.0001801	0.311 ± 0.0006
x2 = 0.000222, x1 = 0.001798	1.584 ± 0.0032
x2 = 0.0002275, x1 = 0.0001801	0.3132 ± 0.0006
x2 = 0.0002287, x1 = 0.001798	1.586 ± 0.0032
x2 = 0.0002358, x1 = 0.001798	1.588 ± 0.0032
x2 = 0.0002368, x1 = 0.0001801	0.3149 ± 0.0006
x2 = 0.0002431, x1 = 0.001798	1.589 ± 0.0032
x2 = 0.0002466, x1 = 0.0001801	0.3165 ± 0.0006
x2 = 0.0002504, x1 = 0.001798	1.591 ± 0.0032
x2 = 0.0002565, x1 = 0.0001801	0.3178 ± 0.0006
x2 = 0.0002612, x1 = 0.001798	1.594 ± 0.0032
x2 = 0.000266, x1 = 0.0001801	0.3191 ± 0.0006
x2 = 0.0002739, x1 = 0.001798	1.597 ± 0.0032
x2 = 0.0002776, x1 = 0.0001801	0.3205 ± 0.0006
x2 = 0.0002909, x1 = 0.0001801	0.322 ± 0.0006
x2 = 0.0003061, x1 = 0.0001801	0.3238 ± 0.0006
x2 = 0.0003232, x1 = 0.0001801	0.3257 ± 0.0007
x2 = 0.0003423, x1 = 0.0001801	0.3278 ± 0.0007
x2 = 0.0003636, x1 = 0.0001801	0.3305 ± 0.0007
x2 = 0.0003892, x1 = 0.0001801	0.3335 ± 0.0007

CC(C)C[C@H](N)C(=O)O + CCCCCCCCCCCC[N+](C)(C)Cc1ccccc1.[Cl-] + O
101 kPa, x1 = 0.00893, x2 = 0
Conditions	electrical conductivity [S/m]
293.15 K	0.00107 ± 6.7e-05
298.15 K	0.00125 ± 7.8e-05
303.15 K	0.00136 ± 8.5e-05
308.15 K	0.00152 ± 9.5e-05
313.15 K	0.00168 ± 0.00011

CC(C)[C@H](N)C(=O)O + CCCCCCCCCCCC[N+](C)(C)Cc1ccccc1.[Cl-] + O
electrical conductivity [S/m], 101 kPa
Conditions	293.15 K	298.15 K	303.15 K	308.15 K	313.15 K
x1 = 0.0008894, x2 = 0	0.000591 ± 3.7e-05	0.000675 ± 4.2e-05	0.000763 ± 4.7e-05	0.000854 ± 5.3e-05	0.000953 ± 5.9e-05
x1 = 0.001757, x2 = 0	0.00102 ± 6.3e-05	0.00116 ± 7.2e-05	0.00131 ± 8.2e-05	0.00147 ± 9.2e-05	0.00164 ± 0.0001

CCCCCCCCC(=O)O + CCCCCCCC[N+](CCCCCCCC)(CCCCCCCC)CCCCCCCC.[Br-]
Conditions	electrical conductivity [S/m]
298.1 K, 100 kPa, x2 = 0.333	4.5e-06 ± 5e-07

c1ccncc1 + CCCCCCCC[n+]1ccc2ccccc2c1.O=S(=O)([N-]S(=O)(=O)C(F)(F)F)C(F)(F)F
Conditions	viscosity [mPa·s]
338.15 K, 101 kPa, x1 = 1	0.54 ± 0.01
